Experimental data reported in PMC6403019, “Nanoformulated Antiretroviral Therapy Attenuates Brain Metabolic Oxidative Stress” (Molecular Neurobiology, 2018).

Assays:
[1] = Plasma concentration after intramuscular injection of free DTG; assay type: in vivo, mice; conditions: single free DTG injection, 45 mg/kg
[2] = system: brain metabolome; assay: Brain region-specific global metabolomics (LC-MS) after DTG injections; assay type: in vivo, mice (Balb/cJ); conditions: five brain regions, Fig. 4
Procedure: Brain tissue subregions were extracted as previously described. Briefly, 0.6 mL of cold methanol:H2O (4:1, v/v) were added per 10 mg tissue (solvent volume was adjusted accordingly to tissue weight). Homogenization was performed with glass beads in a homogenizer and sonicated in an ice bath for 10 min. The mixtures were then transferred to 1.5-mL Eppendorf vials and rinsed with additional 200 μL extraction solvent. To precipitate proteins, the samples were incubated for 1 h at − 20 °C, followed by a 15-min centrifugation at 13,000 rpm at 4 °C. The resulting supernatant was evaporated to dryness in a vacuum concentrator. The dry extracts were then reconstituted in acetonitrile:H2O (1:1, v/v), normalized by tissue weight, sonicated for 10 min, and centrifuged for 15 min at 13000 rpm and 4 °C to remove insoluble debris. The supernatants were transferred to HPLC vials and stored at − 80 °C prior to LC-MS analysis.
The extracts were analyzed on a 6550 iFunnel QTOF mass spectrometer coupled with a 1290 UPLC system (Agilent Technologies, Santa Clara, CA). For global metabolomics, a Luna Aminopropyl, 3 μm, 150 mm × 2.0 mm I.D. HILIC column (Phenomenex, Torrance, CA) was used. […]
LC-MS data were converted to mzXML files using Masshunter Acquisition Software (Agilent Masshunter 6.0B). […] The relative quantification of metabolite features was based on extracted ion chromatogram areas. […]

[3] = system: mouse embryonic neuron cells; assay: ROS formation (DCFDA) in neurons; assay type: cell-based; conditions: administered at 100 and 500 μM
Procedure: (§1) ROS were measured in neuron and MDM cells with the probe DCFDA (dichlorofluorescin diacetate, abcam, Cambridge, MA). Cells were seeded on black, clear-bottomed 96-well plates. After cells were pre-cultured with different treatments, the media were removed and the cells were washed with 1× buffer (supplied with the kit). Cells were incubated for 45 min in 1× buffer containing 25 μM DCFDA at 37 °C. DCF production was measured by fluorescence spectroscopy with excitation wavelength at 485 nm and emission wavelength at 535 nm. In this study, the cells were treated with increasing concentrations of free DTG, nano-DTG, and various vehicle, positive, and negative controls to compare ROS generation and lactate dehydrogenase (LDH)-based cytotoxicity generated by such treatments. […] TBHP (tert-butyl hydroperoxide; 10 μM) and PBS were used as the positive and negative controls, respectively. The vehicle control for nanoformulated DTG was composed of poloxamer micelles without the drug. […] Specifically, cells (both MDM and neurons) were treated for 2 h with various vehicle or drug concentrations. Then, cells were washed and new media was added, and after 24-h culture, cells were challenged with TBHP for 2 h, followed by fluorescence-based ROS measurements.

[4] = system: human MDM; assay: ROS formation (DCFDA) in MDM; assay type: cell-based; conditions: 100 μM
Procedure: as §1

[5] = system: mouse embryonic neuron cells; assay: ROS levels after TBHP challenge in neurons; assay type: cell-based; conditions: 100 μM drug, then 10 μM TBHP; normalized with TBHP-positive control
Procedure: as §1

[6] = system: human MDM; assay: ROS levels after TBHP challenge in MDM; assay type: cell-based; conditions: 10 to 100 μM drug, then 10 μM TBHP
Procedure: as §1

[7] = system: mouse embryonic neuron cells; assay: Cellular uptake of DTG in neurons (LC-MS/MS MRM); assay type: in vitro ADME; conditions: treated with 100 μM
Excerpt: Cycle time was 150 ms for each transition.

[8] = system: neuron and MDM cells; assay: LDH-based cytotoxicity; assay type: cell-based; conditions: 500 μM in the dosing medium
[9] = parameters: method as in PMID 21716073, PMID 23824675; conditions: HIV-infected adults, ten doses of monotherapy with 50 mg once daily DTG tablets; cited from earlier work

With `C[C@@H]1CCO[C@H]2Cn3cc(C(=O)NCc4ccc(F)cc4F)c(=O)c(O)c3C(=O)N12` [free DTG, dolutegravir] the plasma concentration [1] was “up to 11.29 μg/mL”, the “changes of oxidative stress metabolites (ascorbic acid, threonate, GSH, GSSG) vs controls” value [2] was “statistically significant (p value < 0.05) with the exception of ascorbic acid levels observed in the H” and the “ROS fold change vs vehicle control, neurons” value [3] was “up to 1.5 times of control”. The “ROS fold change vs vehicle control, MDM” value [4] was 0.8 times, the “ROS fold change after TBHP challenge, neurons” value [5] was 4 and the “ROS response to TBHP challenge, MDM” value [6] was “induced ROS formation in a dose-response at higher concentrations (60 to 100 μM)”. The “DTG concentration in neurons” value [7] was 168 ng/10^6 cells, the “cytotoxicity (LDH-based)” value [8] was “did not show significant cytotoxicity” and the “steady-state plasma concentration (Cmax)” value [9] was 3340 ng/mL.
